Tested on: potassium ion channel current of the DRG neurons
Type: cell-based, SD rats
Conditions: 5 mM

For `Nc1ccncc1` [4AP, 4-aminopyridine], the Current inhibition rate was 0.338 and the “Current recorded after loading” value was 0.9766 nA.

Reference: patent publication US10858406B2 (priority 2014, dated 2020)
